Reference: the NIST ThermoML archive (doi:10.1016/j.jct.2004.04.003)
± gives the expanded uncertainty stated by the source.

Experiments:
[1] = for vapor or sublimation pressure: Twin ebulliometer; for Triple point temperature: Adiabatic calorimetry
[2] = Molar enthalpy of transition or fusion; details: Adiabatic calorimetry
[3] = molar heat capacity at saturation pressure; details: Crystal 3, Vacuum adiabatic calorimetry

C1CCC(C2CCCC2)C1 [1,1'-bicyclopentyl]
[1]
Details | Critical temperature [K] | mass density [kg/m3] | vapor or sublimation pressure [kPa]
384 K, Liquid | – | – | 9.59 ± 0.013
387.47 K, Liquid | – | – | 10.89 ± 0.013
390.95 K, Liquid | – | – | 12.35 ± 0.014
394.45 K, Liquid | – | – | 13.96 ± 0.014
397.96 K, Liquid | – | – | 15.75 ± 0.015
401.49 K, Liquid | – | – | 17.74 ± 0.016
405.02 K, Liquid | – | – | 19.93 ± 0.018
405.03 K, Liquid | – | – | 19.93 ± 0.018
412.15 K, Liquid | – | – | 25.02 ± 0.019
419.33 K, Liquid | – | – | 31.18 ± 0.022
426.57 K, Liquid | – | – | 38.56 ± 0.025
433.87 K, Liquid | – | – | 47.38 ± 0.029
441.22 K, Liquid | – | – | 57.82 ± 0.034
448.61 K, Liquid | – | – | 70.12 ± 0.039
456.08 K, Liquid | – | – | 84.53 ± 0.044
463.61 K, Liquid | – | – | 101.33 ± 0.05
471.19 K, Liquid | – | – | 120.79 ± 0.06
478.83 K, Liquid | – | – | 143.25 ± 0.07
486.53 K, Liquid | – | – | 169.02 ± 0.07
494.28 K, Liquid | – | – | 198.49 ± 0.08
502.09 K, Liquid | – | – | 232.02 ± 0.09
509.97 K, Liquid | – | – | 270.02 ± 0.1
662.5 K, Gas | – | 114.4 ± 11 | –
682.8 K, Gas | – | 171.2 ± 17 | –
685.1 K, Liquid | – | 366 ± 37 | –
687.3 K, Liquid | – | 347.2 ± 35 | –
689.6 K, Liquid | – | 311 ± 31 | –
689.8 K, Gas | – | 244.4 ± 24 | –
Liquid, DTA | 690 ± 2 | – | –

Details | Molar enthalpy of transition or fusion [kcal/mol] | Triple point temperature [K] | molar heat capacity [J/K/mol]
[1], Crystal 1 | – | 237.82 ± 0.05 | –
[1], Crystal 2 | – | 171.5 ± 3 | –
[1], Crystal 3 | – | 128.4 ± 3 | –
[2], Crystal 1 | 3.202 ± 0.00335 | – | –
[2], Crystal 2 | 0.06142 ± 0.000478 | – | –
[3], 10 K | – | – | 2.73 ± 0.04
[3], 11.5 K | – | – | 4.08 ± 0.04
[3], 11.8 K | – | – | 4.35 ± 0.05
[3], 13.17 K | – | – | 5.8 ± 0.06
[3], 13.37 K | – | – | 6.03 ± 0.06
[3], 14.83 K | – | – | 7.75 ± 0.07
[3], 14.99 K | – | – | 7.95 ± 0.07
[3], 16.64 K | – | – | 10.09 ± 0.07
[3], 16.69 K | – | – | 10.19 ± 0.083
[3], 18.46 K | – | – | 12.62 ± 0.091
[3], 18.63 K | – | – | 12.87 ± 0.091
[3], 20 K | – | – | 14.82 ± 0.1
[3], 20.51 K | – | – | 15.56 ± 0.1
[3], 20.71 K | – | – | 15.86 ± 0.1
[3], 22.72 K | – | – | 18.82 ± 0.11
[3], 22.99 K | – | – | 19.31 ± 0.11
[3], 25.1 K | – | – | 22.6 ± 0.12
[3], 25.32 K | – | – | 22.88 ± 0.12
[3], 27.67 K | – | – | 26.42 ± 0.12
[3], 30 K | – | – | 29.89 ± 0.11
[3], 30.51 K | – | – | 30.65 ± 0.11
[3], 33.62 K | – | – | 35.24 ± 0.12
[3], 37.09 K | – | – | 40.13 ± 0.12
[3], 40 K | – | – | 44.07 ± 0.13
[3], 40.84 K | – | – | 45.17 ± 0.13
[3], 44.81 K | – | – | 49.8 ± 0.14
[3], 49.26 K | – | – | 55.04 ± 0.15
[3], 50 K | – | – | 55.91 ± 0.15
[3], 54.23 K | – | – | 60.6 ± 0.17
[3], 54.24 K | – | – | 60.62 ± 0.17
[3], 59.45 K | – | – | 65.6 ± 0.17
[3], 60 K | – | – | 66.15 ± 0.17
[3], 65.02 K | – | – | 70.77 ± 0.18
[3], 70 K | – | – | 74.88 ± 0.19
[3], 71.12 K | – | – | 75.75 ± 0.19
[3], 77.81 K | – | – | 80.69 ± 0.2
[3], 80 K | – | – | 82.21 ± 0.21
[3], 84.9 K | – | – | 85.44 ± 0.21
[3], 90 K | – | – | 88.7 ± 0.29
[3], 90.4 K | – | – | 88.97 ± 0.29
[3], 92.15 K | – | – | 90 ± 0.29
[3], 95.17 K | – | – | 91.72 ± 0.29
[3], 97.64 K | – | – | 93.21 ± 0.29
[3], 100 K | – | – | 94.56 ± 0.29
[3], 102.4 K | – | – | 95.85 ± 0.3
[3], 105.1 K | – | – | 97.46 ± 0.3
[3], 110 K | – | – | 100.28 ± 0.3
[3], 112.84 K | – | – | 102.05 ± 0.3
[3], 116.54 K | – | – | 104.26 ± 0.31
[3], 118.13 K | – | – | 105.18 ± 0.31
[3], 118.17 K | – | – | 105.56 ± 0.31
[3], 120 K | – | – | 106.6 ± 0.31
